Assay results reported in patent US8674136B2, “Aromatic butan-2-ol compounds and preparation and uses thereof” (Institute of Pharmacology and Toxicology Academy of …, priority 2010, dated 2014).
Values after ≈ are worked out from the molar mass of the structure shown. Values joined by “and” are separate entries in the source; they are usually repeats but may differ in a detail not shown here. Equal entries are not always repeated.

Legend:
[1] = test system: Standard Strain H37Rv of mycobacterium tuberculosis; assay: MIC against standard strain H37Rv by Microplate Alamar Blue Assay (MABA); format: cell-based; conditions: M. tuberculosis H37Rv, 7H9 medium, 37° C.
[2] = Acute toxicity in mice, single oral intragastric administration; format: in vivo; conditions: male, BALB/C, mouse, in vivo, single oral intragastric administration, preliminary
Description: (§1) Experiments on the Acute Toxicity of the Compounds
(§2) The acute toxicities of Compounds 4, 16 and 25 were in vivo evaluated preliminarily in mice. Animal: male BALB/C mice, 18-20 g/mouse, 3 mice for blank control group, and 5 mice for each of test groups.
(§3) Method: Suspensions of Compound 25: 49 mg/ml (depended on the total amount of the compound provided); Compounds 4 and 16: 50 mg/ml were prepared in 0.5% CMC to separately. Each mouse of the 3 groups was subjected to oral intragastric administration of 0.2 ml of drug, and the doses were separately as follows: Compound 25: 490 mg/kg; and Compounds 4 and 16: 500 mg/kg. The blank control was administered with water. The consciousness, behavior and death of mice were observed every day after administration until 7 days of administration, and the survived mice were dissected after 7 days to observe pathological changes of tissues.

[3] = test system: male BALB/C mice; assay: as above; format: in vivo; conditions: observed 7 days
Description: as §1, §2, §3

Compound	MIC [1]	LD50 at 7 days [2] [mg/kg]	death or abnormality of the animals ([3]; single dose of 500 mg/kg)	melting point [°C]	death or abnormality of the animals ([3]; single dose of 490 mg/kg)
COc1cc2ccc(Br)cc2cc1C(c1ccc(Cl)cc1)C(O)(CCN(C)C)c1cccc2ccccc12 (single isomer, unassigned) [Compound 4, 1-(4-chlorophenyl)-2-(1-naphthyl)-1-[2-(7-bromo-3-methoxy)naphthyl]-4-(N,N-dimethylamino)-butan-2-ol]	0.244 µg/mL (≈ 0.414 µM)	≥ 500	no death nor abnormality	–	–
COc1cc2ccccc2cc1C(c1ccc(Cl)cc1)C(O)(CCN(C)C)c1ccc(F)cc1F (stereo not drawn) [Compound 14, 1-(4-chlorophenyl)-2-(2,4-difluorophenyl)-1-[2-(3-methoxy)naphthyl]-4-(N,N-dimethylamino)-butan-2-ol]	0.754 µg/mL (≈ 1.52 µM)	–	–	190.6 to 192.4	–
COc1cc2ccc(Br)cc2cc1C(c1ccc(Cl)cc1)C(O)(CCN(C)C)c1cccc(Br)c1 (stereo not drawn) [Compound 16, 1-(4-chlorophenyl)-2-(3-bromophenyl)-1-[2-(7-bromo-3-methoxy)naphthyl]-4-(N,N-dimethylamino)-butan-2-ol]	0.184 µg/mL (≈ 0.298 µM)	≥ 500	no death nor abnormality	–	–
COc1cc2ccc(Br)cc2cc1C(c1ccccc1)C(O)(CCN(C)C)c1cccc2ccccc12 (stereo not drawn) [Compound 25, 1-phenyl-2-(1-naphthyl)-1-[2-(7-bromo-3-methoxy)naphthyl]-4-(N,N-dimethylamino)-butan-2-ol]	0.594 µg/mL (≈ 1.07 µM)	≥ 490	–	–	no death nor abnormality
COc1cc2ccc(Br)cc2cc1C(c1ccc(C)cc1)C(O)(CCN(C)C)c1cccc2ccccc12 (stereo not drawn) [Compound 30, 1-(4-methylphenyl)-2-(1-naphthyl)-1-[2-(7-bromo-3-methoxy)naphthyl]-4-(N,N-dimethylamino)-butan-2-ol]	1.000 µg/mL (≈ 1.76 µM)	–	–	189.5 to 190.8	–
CN(C)CCC(O)(c1cccc2ccccc12)C(c1ccccc1)c1cc2cc(Br)ccc2c(Br)c1O (stereo not drawn) [Compound 33, 1,6-dibromo-3-[1-phenyl 2-(1-naphthyl)-2-hydroxy-4-(N,N-dimethylamino)]butyl-2-naphthol]	1.000 µg/mL (≈ 1.61 µM)	–	–	–	–
CN(C)CCC(O)(c1cccc2ccccc12)C(c1ccccc1)c1cc2cc(Br)ccc2c(Br)c1O (stereo not drawn) [Compound 34, 1,6-dibromo-3-[1-phenyl 2-(1-naphthyl)-2-hydroxy-4-(N,N-dimethylamino)]butyl-2-naphthol]	4.000 µg/mL (≈ 6.46 µM)	–	–	–	–
COc1cc2ccc(Br)cc2cc1C(c1cccc(Cl)c1)C(O)(CCN(C)C)c1cccc2ccccc12 (stereo not drawn) [Compound 35, 1-(3-chlorophenyl)-2-(1-naphthyl)-1-[2-(7-bromo-3-methoxy)naphthyl]-4-(N,N-dimethylamino)-butan-2-ol]	0.114 µg/mL (≈ 0.194 µM)	–	–	–	–
COc1cc2ccc(Br)cc2cc1C(c1cccc(Cl)c1)C(O)(CCN(C)C)c1cccc2ccccc12 (stereo not drawn) [Compound 36, 1-(3-chlorophenyl)-2-(1-naphthyl)-1-[2-(7-bromo-3-methoxy)naphthyl]-4-(N,N-dimethylamino)-butan-2-ol]	3.773 µg/mL (≈ 6.41 µM)	–	–	–	–
COc1cc2ccc(Br)cc2cc1C(c1cccc(C)c1)C(O)(CCN(C)C)c1cccc2ccccc12 (stereo not drawn) [Compound 37, 1-(3-methylphenyl)-2-(1-naphthyl)-1-[2-(7-bromo-3-methoxy)naphthyl]-4-(N,N-dimethylamino)-butan-2-ol]	0.180 µg/mL and 0.258 µg/mL	–	–	–	–
